Reference: paper PMC6327988 (Journal of Enzyme Inhibition and Medicinal Chemistry, 2019)

How the values were obtained:
AChE = AChE (Homo sapiens, UniProt P22303); assay: AChE inhibition, Ellman colorimetric method; assay type: biochemical; details: ratio of AChE IC50 values
BuChE = BuChE (Homo sapiens, UniProt P06276); assay: BuChE inhibition, Ellman colorimetric method; assay type: biochemical; details: ratio of BuChE IC50 values
Chain of BuChE (P06276 29-602): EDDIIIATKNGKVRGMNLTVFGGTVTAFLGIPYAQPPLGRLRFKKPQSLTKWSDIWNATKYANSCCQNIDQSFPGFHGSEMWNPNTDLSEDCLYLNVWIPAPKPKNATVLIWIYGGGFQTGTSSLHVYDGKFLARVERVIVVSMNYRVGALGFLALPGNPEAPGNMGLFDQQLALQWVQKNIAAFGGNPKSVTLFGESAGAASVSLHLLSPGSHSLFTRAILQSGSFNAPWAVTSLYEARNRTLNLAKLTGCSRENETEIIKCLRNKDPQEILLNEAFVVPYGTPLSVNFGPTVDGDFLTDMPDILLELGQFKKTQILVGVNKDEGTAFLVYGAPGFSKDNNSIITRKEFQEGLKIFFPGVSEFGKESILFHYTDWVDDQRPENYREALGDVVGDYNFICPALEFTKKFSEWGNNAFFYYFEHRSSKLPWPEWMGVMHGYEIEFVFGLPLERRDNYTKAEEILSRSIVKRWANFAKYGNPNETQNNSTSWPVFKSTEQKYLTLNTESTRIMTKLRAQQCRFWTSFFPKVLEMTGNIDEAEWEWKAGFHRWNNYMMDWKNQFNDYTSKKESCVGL

Chain of AChE (P22303 32-614): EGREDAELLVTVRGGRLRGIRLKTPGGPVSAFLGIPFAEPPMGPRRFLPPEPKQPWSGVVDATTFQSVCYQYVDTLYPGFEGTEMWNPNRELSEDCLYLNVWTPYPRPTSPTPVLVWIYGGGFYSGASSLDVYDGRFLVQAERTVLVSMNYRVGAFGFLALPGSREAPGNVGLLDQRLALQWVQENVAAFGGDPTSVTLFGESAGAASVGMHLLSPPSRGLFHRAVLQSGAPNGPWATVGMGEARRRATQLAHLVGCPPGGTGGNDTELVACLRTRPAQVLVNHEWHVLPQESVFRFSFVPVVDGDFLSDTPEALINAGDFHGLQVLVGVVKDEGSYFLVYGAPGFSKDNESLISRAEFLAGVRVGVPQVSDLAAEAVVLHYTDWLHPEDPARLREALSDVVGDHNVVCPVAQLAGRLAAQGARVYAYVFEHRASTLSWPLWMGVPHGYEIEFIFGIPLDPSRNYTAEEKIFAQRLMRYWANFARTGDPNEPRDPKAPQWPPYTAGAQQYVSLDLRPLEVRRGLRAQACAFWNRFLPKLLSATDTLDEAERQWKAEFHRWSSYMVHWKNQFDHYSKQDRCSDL

Q: For `CS(=O)(=O)n1cc(Br)c(=O)[nH]c1=O` [Compound 5, 5-Bromo-1-methanesulfonyl-1H-pyrimidine-2,4-dione], which “fold decrease of AChE inhibitory activity, mesylate vs toluene-4-sulfonyl group” value (AChE; 5 vs 4) is on record?
A: 1.26 fold

Q: Which “fold weaker BuChE inhibitor compared to uracil derivative 4” value (BuChE; vs 4) does the source give for `O=c1[nH]cc(Br)c(=O)[nH]1` [Compound 3, 5-bromo-1H-pyrimidine-2,4-dione] here?
A: 2.13 fold

Q: Which results are given for `Cc1ccc(S(=O)(=O)n2cc(Br)c(=O)[nH]c2=O)cc1` [Compound 4, 5-Bromo-1-(toluene-4-sulfonyl)-1H-pyrimidine-2,4-dione]?
A: fold stronger AChE inhibitory profile compared to uracil 3 (AChE; vs 3): 1.71 fold; fold active compared to neostigmine (AChE) (AChE; vs neostigmine): 1.54 fold; fold better BuChE inhibitor compared to 5 (BuChE; vs 5): 1.42 fold; fold less active compared to neostigmine (BuChE) (BuChE; vs neostigmine): 1.63 fold
